According to patent publication EP4603105A1, “PHARMACEUTICAL COMPOSITION CONTAINING CYCLIC COMPOUND HAVING SELECTIVE KRAS INHIBITORY EFFECT AGAINST HRAS AND NRAS” (CHUGAI SEIYAKU KABUSHIKI KAISHA, priority 2022, dated 2024):
pIC50, pKd: −log10 of the molar value. Where a SMILES comes first, the peptide text is derived from it. Bridges are numbered along the chain shown (N, C = ends). [ ]: non-standard residue; d: D form. The star is where a group is joined. hPhe(3-Cl-4-CF3) = N[C@@H](CCc1ccc(C(F)(F)F)c(Cl)c1)C(=O)O; NEtPhe(4-Me) = CCN[C@@H](Cc1ccc(C)cc1)C(=O)O; NMeGly(cPent) = CN[C@H](C(=O)O)C1CCCC1; Hyp = O=C(O)[C@@H]1C[C@@H](O)CN1; NMeD = CN[C@@H](CC(=O)O)C(=O)O; NMeL = CN[C@@H](CC(C)C)C(=O)O; Morpholide = C1CN(*)CCO1; NMeA = CN[C@@H](C)C(=O)O; Ac5c = NC1(C(=O)O)CCCC1; Aze = O=C(O)[C@@H]1CCN1; X4 = C1CCC(*)OC1; Sar = CNCC(=O)O

Columns and labels:
[1] = target: GDP-bound NRAS wild-type protein (Homo sapiens, UniProt P01111); assay: Binding to NRAS by surface plasmon resonance (SPR), KD and KD ratio to KRAS
Chain of GDP-bound NRAS wild-type protein (P01111 whole entry): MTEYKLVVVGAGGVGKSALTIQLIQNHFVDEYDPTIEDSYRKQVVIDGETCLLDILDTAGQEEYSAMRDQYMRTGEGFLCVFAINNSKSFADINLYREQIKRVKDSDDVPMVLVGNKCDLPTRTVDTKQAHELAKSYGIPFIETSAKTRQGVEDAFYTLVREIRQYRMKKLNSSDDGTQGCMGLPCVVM
Outline: (§1)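 Measured at 30°C: SPR with GDP-loaded, E. coli-expressed biotin-Avi RAS captured (~100–300 RU), ascending 75 s compound injections, HBS pH 7.4 with GDP, MgCl2, 4% DMSO. KD from 1:1 fit.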

HRAS wild-type protein = HRAS wild-type protein (Homo sapiens, UniProt P01112); assay: Binding to HRAS by surface plasmon resonance (SPR), KD and KD ratio to KRAS
Chain of HRAS wild-type protein (P01112 whole entry): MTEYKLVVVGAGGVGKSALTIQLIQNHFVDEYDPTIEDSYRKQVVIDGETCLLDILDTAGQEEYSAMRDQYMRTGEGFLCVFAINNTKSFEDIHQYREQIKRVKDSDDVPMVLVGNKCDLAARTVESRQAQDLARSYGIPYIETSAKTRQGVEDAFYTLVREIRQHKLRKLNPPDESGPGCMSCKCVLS
Outline: as §1

[2] = target: GDP-bound KRAS wild-type protein (Homo sapiens, UniProt P01116); assay: Binding to KRAS by surface plasmon resonance (SPR), dissociation constant KD
Chain of GDP-bound KRAS wild-type protein (P01116 1-188 isoform P01116-2): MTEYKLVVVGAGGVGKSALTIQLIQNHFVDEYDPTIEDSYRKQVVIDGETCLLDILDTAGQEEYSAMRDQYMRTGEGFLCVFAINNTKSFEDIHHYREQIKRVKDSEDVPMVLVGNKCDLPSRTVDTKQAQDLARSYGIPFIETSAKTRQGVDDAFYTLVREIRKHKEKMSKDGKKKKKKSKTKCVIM
Method: Surface plasmon resonance was used to analyze the binding affinity of compounds for KRAS, NRAS, and HRAS. The apparatus used was Biacore 8K, 8K+, or T200 (GE Healthcare), and the running buffer used was HBS (10 mM HEPES-NaOH, 150 mM NaCl, pH 7.4) containing 1 mM DTT, 10 mM MgCl2, 0.01% Tween 20, 10 µM GDP, and 4% DMSO.
Biotinylated Avi-tag fusion KRAS, NRAS, and HRAS proteins were expressed in E. coli BL21 (DE3) strains, and after cells were homogenized, they were purified using Streptavidin Mutein Matrix and Superdex 75. After purification, GDP-loaded KRAS, NRAS, and HRAS proteins were immobilized on the surface of Sensor Chip CAP (Cytiva) coated with Biotin CAPture Reagent in an immobilization amount of about 100 to 300 RU. Binding of each compound was evaluated by the Single Cycle Kinetics method, and a running buffer or a compound solution was added to the RAS protein non-immobilized surface and the immobilized surface to obtain a binding response. The flow rate was set to 100 µL/min, and in the compound-adding cycle, compound solutions having different concentrations were intermittently added for 75 seconds each, starting from a low concentration. […] In the blank cycle, a running buffer was intermittently added and not the compound solution. The Biotin CAPture Reagent and RAS proteins were immobilized for each cycle, and at the end of each cycle, the sensor chip was regenerated by the regeneration solution appended to the Biotin CAPture Kit (Cytiva). Measurement was carried out at 30°C.
The resulting sensorgram was subjected to curve fitting based on a 1:1 binding model on Biacore Insight Evaluation Software or T200 Evaluation Software, and thereby the dissociation constant KD of each compound with respect to KRAS, NRAS, and HRAS was determined. […] Blank indicates a compound from which the KD value with respect to NRAS or HRAS was not obtained.

[3] = tested on: human lung cancer strain NCI-H441; type: cell-based
Outline: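 Signal came from […] measured per well once the reagent was added. Beforehand, cells were cultured at 37°C and 5% carbon dioxide on a compound series serially diluted in dimethyl sulfoxide.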

[4] = ratio of the KD value with respect to GDP-bound NRAS wild-type protein to the KD value with respect to KRAS
[5] = ratio of the KD value with respect to HRAS wild-type protein to the KD value with respect to KRAS
[6] = Single Cycle Kinetics, 1:1 binding model
[7] = ratio of KD value for GDP-bound NRAS wild-type protein to KD value for KRAS (SPR)
[8] = ratio of KD value for HRAS wild-type protein to KD value for KRAS (SPR)
[9] = ratio of KD for GDP-bound NRAS wild-type protein to KD for KRAS
[10] = ratio of KD for HRAS wild-type protein to KD for KRAS

Structure (SMILES)	NRAS /KRAS [1, 4]	HRAS /KRAS (HRAS wild-type protein; [5])	pKd [2, 6]	pIC50 [3]	NRAS /KRAS [1, 7]	HRAS /KRAS (HRAS wild-type protein; [8])	NRAS /KRAS [1, 9]	HRAS /KRAS (HRAS wild-type protein; [10])	pKd ([2]; Single Cycle Kinetics)	pKd ([2]; 1:1 binding model)
CCC[C@H]1C(=O)N[C@@H](C(CC)CC)C(=O)N(C)CC(=O)N(C)[C@H]2C/C=C\CCN(C2=O)[C@@H](Cc2ccc(C)cc2)C(=O)N(C)CC(=O)N[C@@H](CCc2ccc(C(F)(F)F)c(Cl)c2)C(=O)N2C[C@H](OCC)C[C@H]2C(=O)NC2(CC(C)(C)C2)C(=O)N(C)[C@@H](CC(C)C)C(=O)N(C)[C@H](C(=O)N(C)C)CC(=O)N1C [PP2202]	A (a compound having 10 or more and less than 20 is denoted as A)	A (a compound having 10 or more and less than 20 is denoted as A)	8.31	7.02						
CC[C@H](C)[C@@H]1NC(=O)[C@H](CC(C)C)N(C)C(=O)C[C@@H](C(=O)N(C)C)N(C)C(=O)[C@H](C2CCCC2)N(C)C(=O)C2(CCCC2)NC(=O)[C@@H]2CCCN2C(=O)[C@H](CCc2ccc(C(F)(F)F)c(Cl)c2)NC(=O)CN(C)C(=O)[C@H](Cc2ccc(C)cc2)N2CC=CCOC[C@H](C2=O)N(C)C(=O)CN(C)C1=O [PP0629]	B (a compound having 3 or more and less than 10 is denoted as B)	C (A compound having a KD ratio of 0.1 or more and less than 3 is denoted as C)	8.62	7.35						
CCO[C@@H]1C[C@H]2C(=O)NC3(CCC3)C(=O)N(C)[C@@H](C3CCCC3)C(=O)N(C)[C@H](C)CC(=O)N(C)[C@@H](CC(C)C)C(=O)N[C@@H]([C@@H](C)CC)C(=O)N(C)CC(=O)N(C)[C@H]3C/C=C\CCN(C3=O)[C@@H](Cc3ccc(F)cc3)C(=O)N(C)CC(=O)N[C@@H](CCc3cc(F)c(C(F)(F)F)c(F)c3)C(=O)N2C1 [PP1494]			9.24	6.85	B (a compound having 3 or more and less than 10 is denoted as B)	B (a compound having 3 or more and less than 10 is denoted as B)				
CCO[C@@H]1C[C@H]2C(=O)NC3(CCC3)C(=O)N(C)[C@@H](C3CCCC3)C(=O)N(C)[C@H](C(=O)N(C)C)CC(=O)N(C)[C@@H](CC)C(=O)N[C@@H]([C@@H](C)CC)C(=O)N3CC[C@@H]3C(=O)N(C)[C@H]3C/C=C\CCN(C3=O)[C@@H](Cc3ccc(C(F)(F)F)cc3)C(=O)N(C)CC(=O)N[C@@H](CCc3cc(F)c(C(F)(F)F)c(F)c3)C(=O)N2C1 [PP1064]				5.86			A (a compound having 10 or more and less than 20 is denoted as A)	A (a compound having 10 or more and less than 20 is denoted as A)	7.77	
CCO[C@@H]1C[C@H]2C(=O)NC3(CC(C)(C)C3)C(=O)N(C)[C@@H](C3CCCC3)C(=O)N(C)[C@H](C(=O)N(C)CC)CC(=O)N(C)[C@@H]([C@H](C)OC)C(=O)N[C@@H]([C@@H](C)CC)C(=O)N3CCC[C@H]3C(=O)N(C)[C@H]3C/C=C\CCN(C3=O)[C@@H](Cc3ccc(C)cc3)C(=O)N(C)CC(=O)N[C@@H](CCc3ccc(C(F)(F)F)c(OC)c3)C(=O)N2C1 [PP3161]				6.82			A (a compound having 10 or more and less than 20 is denoted as A)	A (a compound having 10 or more and less than 20 is denoted as A)		8.64
CC[C@H](C)[C@@H]1NC(=O)[C@H](COC)NC(=O)C[C@@H](C(=O)N(C)CC)N(C)C(=O)[C@H](C2CCCC2)N(C)C(=O)C2(CC(C)(C)C2)NC(=O)[C@@H]2C[C@@H](F)CN2C(=O)[C@H](CCc2ccc(C(F)(F)F)c(OC)c2)NC(=O)CN(C)C(=O)[C@H](Cc2ccc(C(F)(F)F)cc2)N2CC/C=C\C[C@@H](C2=O)N(C)C(=O)CN(C)C1=O [PP3137]				7.64			A (a compound having 10 or more and less than 20 is denoted as A)	A (a compound having 10 or more and less than 20 is denoted as A)		10.08
CC[C@H](C)[C@@H]1NC(=O)[C@H](CC(C)C)N(C)C(=O)C[C@@H](C(=O)N2CCOCC2)N(C)C(=O)[C@H](C2CCCC2)N(C)C(=O)C2(CCCC2)NC(=O)[C@@H]2CCCN2C(=O)[C@H](CCc2ccc(C(F)(F)F)c(Cl)c2)NC(=O)CN(C)C(=O)[C@H](Cc2ccc(F)cc2)N2C/C=C\CC[C@@H](C2=O)N(C)C(=O)CN(C)C1=O [PP0607]	C (A compound having a KD ratio of 0.1 or more and less than 3 is denoted as C)	B (a compound having 3 or more and less than 10 is denoted as B)	9.01	6.92						
CCC[C@H]1C(=O)N[C@@H]([C@@H](C)CC)C(=O)N(C)CC(=O)N(C)[C@H]2C/C=C\CCN(C2=O)[C@@H](Cc2ccc(C)cc2)C(=O)N(C)CC(=O)N[C@@H](CCc2cc(F)c(C(F)(F)F)c(F)c2)C(=O)N2C[C@H](OCC)C[C@H]2C(=O)NC2(CC(C)(C)C2)C(=O)N(C)[C@@H](CC(C)C)C(=O)N(C)[C@H](C(=O)N(C)C)CC(=O)N1C [PP2995]				7.89			A (a compound having 10 or more and less than 20 is denoted as A)	A (a compound having 10 or more and less than 20 is denoted as A)		9.49
CC[C@H](C)[C@@H]1NC(=O)[C@H](Cc2cccc(Cl)c2)N(C)C(=O)C[C@@H](C(=O)N2CCOCC2)N(C)C(=O)[C@H](C2CCCC2)N(C)C(=O)C2(CCCC2)NC(=O)[C@@H]2CCCN2C(=O)[C@H](CCc2ccc(C(F)(F)F)c(Cl)c2)NC(=O)CN(C)C(=O)[C@H](Cc2ccc(F)cc2)N2CCCCC[C@@H](C2=O)N(C)C(=O)CN(C)C1=O [PP0963]				7.00			B (a compound having 3 or more and less than 10 is denoted as B)	B (a compound having 3 or more and less than 10 is denoted as B)	9.11	
CCCN(C)C(=O)[C@@H]1CC(=O)N(C)[C@@H](C2CC2)C(=O)N[C@@H]([C@@H](C)CC)C(=O)N(C)CC(=O)N(C)[C@H]2C/C=C\CCN(C2=O)[C@@H](Cc2ccc(C(F)(F)F)cc2)C(=O)N(C)CC(=O)N[C@@H](CCc2cc(F)c(C(F)(F)F)c(F)c2)C(=O)N2C[C@H](OCC)C[C@H]2C(=O)NC2(CC(C)(C)C2)C(=O)N(C)[C@@H](C2CCCC2)C(=O)N1C [PP2037]	A (a compound having 10 or more and less than 20 is denoted as A)	A (a compound having 10 or more and less than 20 is denoted as A)	9.92	7.80						
CCO[C@@H]1C[C@H]2C(=O)NC3(CCC3)C(=O)N(C)[C@@H](C3CCCC3)C(=O)N(C)[C@H](C(=O)N(C)CC)CC(=O)N(C)[C@@H](CC3CCC3)C(=O)N[C@@H]([C@@H](C)CC)C(=O)N(C)CC(=O)N(C)[C@H]3C/C=C\CCN(C3=O)[C@@H](Cc3ccc(C(F)(F)F)cc3)C(=O)N(C)CC(=O)N[C@@H](CCc3cc(F)c(C(F)(F)F)c(F)c3)C(=O)N2C1 [PP1667]			10.09	8.70	A (a compound having 10 or more and less than 20 is denoted as A)	A (a compound having 10 or more and less than 20 is denoted as A)				
CC[C@H](C)[C@@H]1NC(=O)[C@H](CC(C)C)N(C)C(=O)C[C@@H](C(=O)N2CCOCC2)N(C)C(=O)[C@H](C2CCCC2)N(C)C(=O)C2(CCCC2)NC(=O)[C@@H]2C[C@@H](OC3CCCCO3)CN2C(=O)[C@H](CCc2ccc(C(F)(F)F)c(Cl)c2)NC(=O)CN(C)C(=O)[C@H](Cc2ccc(C)cc2)N(CC)C(=O)[C@@H]2CCN2C(=O)[C@H](C)N(C)C1=O (stereo partly drawn) [PP0067] ([NMeL]I[NMeA][Aze][NEtPhe(4-Me)][Sar][hPhe(3-Cl-4-CF3)][Hyp](X4)[Ac5c][NMeGly(cPent)][NMeD]-Morpholide; lactam N-11)				8.57			C (A compound having a KD ratio of 0.1 or more and less than 3 is denoted as C)	C (A compound having a KD ratio of 0.1 or more and less than 3 is denoted as C)		10.14
